Experiment [1] addresses T1, RNA-binding protein pos-1 (Caenorhabditis elegans, UniProt G5EF15).
T1 sequence (G5EF15 whole entry): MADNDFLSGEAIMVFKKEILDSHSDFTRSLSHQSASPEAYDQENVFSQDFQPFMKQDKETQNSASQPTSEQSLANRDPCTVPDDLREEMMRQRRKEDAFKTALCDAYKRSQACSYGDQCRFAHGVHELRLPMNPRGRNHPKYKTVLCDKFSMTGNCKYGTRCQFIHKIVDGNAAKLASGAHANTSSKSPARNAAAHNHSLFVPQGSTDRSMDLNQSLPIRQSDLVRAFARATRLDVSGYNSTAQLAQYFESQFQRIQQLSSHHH
Put plainly: inhibitors of POS-1/mex-3 RNA binding, dose response, biochemical, fluorescence polarization (AID 1964).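 Also: purified POS-1 fused to maltose binding protein made in E. coli; potency of compounds blocking POS-1 binding to fluorescent RNA.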 A general note: Polarisation of emitted light reports the rotation of a fluorescent probe.

The target in experiment [2] is T2, Zinc finger protein mex-5 (Caenorhabditis elegans, UniProt Q9XUB2).
T2 sequence (Q9XUB2 whole entry): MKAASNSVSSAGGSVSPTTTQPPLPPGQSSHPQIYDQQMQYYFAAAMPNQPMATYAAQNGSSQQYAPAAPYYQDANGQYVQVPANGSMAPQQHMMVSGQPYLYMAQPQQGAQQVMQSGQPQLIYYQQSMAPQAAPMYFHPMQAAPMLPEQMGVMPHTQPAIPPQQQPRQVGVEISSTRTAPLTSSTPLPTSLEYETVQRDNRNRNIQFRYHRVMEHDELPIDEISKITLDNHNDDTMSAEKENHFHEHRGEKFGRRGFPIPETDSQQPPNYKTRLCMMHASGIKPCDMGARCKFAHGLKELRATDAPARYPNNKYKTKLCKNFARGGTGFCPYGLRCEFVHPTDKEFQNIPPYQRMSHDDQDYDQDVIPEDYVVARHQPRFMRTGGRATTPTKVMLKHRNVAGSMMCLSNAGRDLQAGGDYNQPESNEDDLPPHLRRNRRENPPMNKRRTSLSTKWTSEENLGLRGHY
Kind of experiment: MEX-5/TCR-2 RNA interaction inhibitors, dose response, biochemical, C. elegans, fluorescence polarization (AID 1960).

The nature of another experiment: cells. Type of experiment: functional.
Experiment [3] can be described thus: NIH-3T3 fibroblast cytotoxicity, dose response, cytotoxicity control, cell-based, fluorescence, Alamar Blue, secondary assay (AID 2327).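 Also: NIH-3T3 mouse fibroblasts cultured with fluconazole at 8 µg/mL.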 Type of experiment: functional.
The nature of experiment [4]: C. albicans growth with fluconazole, confirmation, fluorescence, retest (AID 2467). Type of experiment: functional, cell-based.
Experiment [5] concerns the target T3, Heat shock factor protein 1 (Mus musculus, UniProt P38532).
T3 sequence (P38532 whole entry): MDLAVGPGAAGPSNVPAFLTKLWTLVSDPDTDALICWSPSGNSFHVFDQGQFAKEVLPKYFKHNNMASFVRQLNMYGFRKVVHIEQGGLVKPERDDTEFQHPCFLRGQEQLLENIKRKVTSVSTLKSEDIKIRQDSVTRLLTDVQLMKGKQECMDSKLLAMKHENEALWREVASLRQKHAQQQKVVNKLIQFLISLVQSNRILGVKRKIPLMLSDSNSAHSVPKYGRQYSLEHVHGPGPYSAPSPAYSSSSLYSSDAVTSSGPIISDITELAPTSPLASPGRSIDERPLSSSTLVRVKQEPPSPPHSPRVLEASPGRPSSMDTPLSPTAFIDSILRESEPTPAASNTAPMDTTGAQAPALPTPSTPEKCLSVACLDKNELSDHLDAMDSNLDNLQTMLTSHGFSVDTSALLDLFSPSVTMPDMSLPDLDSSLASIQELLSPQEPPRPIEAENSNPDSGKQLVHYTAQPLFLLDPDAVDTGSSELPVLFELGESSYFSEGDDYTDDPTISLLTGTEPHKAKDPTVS
Kind of experiment: HSF1 potentiators in luciferase reporter cells, confirmation, cell-based, NIH3T3, luminescence, dose retest (AID 435004).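 Also: stress induced by proteasome inhibitor MG132 added 30 min after compound; luciferase reporter driven by HSF1 response element in NIH3T3 cells; actives raise luminescence as potentiators of the MG132 stress response.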 Type of experiment: functional. In general terms: A reporter such as luciferase makes a cellular process visible.

For experiment [6], the target named is T4, Corticotropin-releasing factor receptor 2/Corticotropin-releasing factor-binding protein (Homo sapiens, UniProt P24387+Q13324).
T4 sequence (Q13324 whole entry): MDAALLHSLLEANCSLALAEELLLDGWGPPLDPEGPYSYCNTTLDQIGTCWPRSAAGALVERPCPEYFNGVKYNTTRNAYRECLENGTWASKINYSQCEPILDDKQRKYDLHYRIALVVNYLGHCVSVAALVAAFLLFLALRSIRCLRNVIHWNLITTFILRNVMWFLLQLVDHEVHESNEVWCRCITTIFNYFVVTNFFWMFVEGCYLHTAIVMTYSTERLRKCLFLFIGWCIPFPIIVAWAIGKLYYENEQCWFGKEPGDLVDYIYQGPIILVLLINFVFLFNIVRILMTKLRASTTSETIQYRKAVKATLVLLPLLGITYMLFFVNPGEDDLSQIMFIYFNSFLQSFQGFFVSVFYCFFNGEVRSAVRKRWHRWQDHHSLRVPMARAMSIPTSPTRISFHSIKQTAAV
T4 sequence (P24387 whole entry): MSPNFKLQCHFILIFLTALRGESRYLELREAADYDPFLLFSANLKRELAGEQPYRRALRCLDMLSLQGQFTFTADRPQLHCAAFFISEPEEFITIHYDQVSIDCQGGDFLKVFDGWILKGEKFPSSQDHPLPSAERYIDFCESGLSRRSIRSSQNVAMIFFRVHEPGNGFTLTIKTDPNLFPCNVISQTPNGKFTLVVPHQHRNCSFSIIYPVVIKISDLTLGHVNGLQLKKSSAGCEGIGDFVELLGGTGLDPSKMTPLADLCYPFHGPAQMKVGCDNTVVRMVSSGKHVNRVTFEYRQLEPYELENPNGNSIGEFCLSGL
Put plainly: activators of CRF receptor 2 with binding protein – uHTS hits, confirmation (AID 602473). Type of experiment: functional. Conditions: read-out: EC50_Mean.

The nature of experiment [7]: inhibitors of intracellular T. cruzi replication, confirmation, NIH3T3 host cells, beta-gal luminescence (AID 2044).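 Also: intracellular parasites grown in NIH/3T3 mouse fibroblasts as host cells; luminescent beta-galactosidase reporter signal from transgenic T. cruzi replicating inside host cells; inhibitors lower the luminescence signal.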 Type of experiment: functional, cell-based.
The nature of experiment [8]: cytotoxicity toward NIH3T3 fibroblasts, dose response, counter-screen, cell-based, ATP luminescence, mouse fibroblasts (AID 2010).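 Also: cells exposed to compound for about 90 hours before reading.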 Type of experiment: functional. Background: A counterscreen serves to expose hits that act by an unwanted route or on another target.
For experiment [9], the target named is Luciferin 4-monooxygenase (Photinus pyralis, UniProt P08659). Put plainly: firefly luciferase enzyme inhibitors, dose response, biochemical, luminescence (AID 1891).
The nature of experiment [10]: Luminescence Cell-Based Dose Confirmation HTS to Identify Inhibitors of Platelet Dense Granule Release. [Related pubchem assays: 1663 (Primary HTS), 1678 (Summary of Project)]. Type of experiment: functional.
The target in a further experiment is Cytochrome P450 2D6 (Homo sapiens, UniProt P10635).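 Also: CYP2D6 member of a cytochrome P450 panel assay.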
Experiment [11] in a line: HEp-2 cell cytotoxicity, dose response, cytotoxicity control for RSV inhibitor project, HTS (AID 2410). Type of experiment: functional. Conditions: human respiratory syncytial virus.
For experiment [12], the target named is T5, Microphthalmia-associated transcription factor (Homo sapiens, UniProt O75030).
T5 sequence (O75030 whole entry): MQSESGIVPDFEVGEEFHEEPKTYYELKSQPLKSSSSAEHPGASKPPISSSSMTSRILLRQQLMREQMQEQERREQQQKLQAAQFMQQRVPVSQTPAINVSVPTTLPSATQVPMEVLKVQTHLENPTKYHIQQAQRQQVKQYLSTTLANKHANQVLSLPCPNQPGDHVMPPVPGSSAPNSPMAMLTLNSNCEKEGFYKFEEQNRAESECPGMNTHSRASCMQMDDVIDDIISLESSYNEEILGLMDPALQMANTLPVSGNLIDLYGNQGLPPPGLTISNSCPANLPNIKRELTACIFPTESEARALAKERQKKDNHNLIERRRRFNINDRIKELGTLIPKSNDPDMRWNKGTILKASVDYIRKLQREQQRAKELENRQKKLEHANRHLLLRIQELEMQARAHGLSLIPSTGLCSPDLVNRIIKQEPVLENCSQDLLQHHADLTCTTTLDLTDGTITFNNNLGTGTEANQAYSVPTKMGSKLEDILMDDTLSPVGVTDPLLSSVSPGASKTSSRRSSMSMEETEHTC
Put plainly: TRPM1 promoter luciferase signal decrease, dose response, MITF inhibitor project, cell-based, SK-MEL-5, cherry-picked, set 3 (AID 493073).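 Also: SK-MEL-5 melanoma cells with luciferase driven by the MITF target TRPM1 promoter.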 Type of experiment: functional.

Experiment [13] is described as follows: inhibitors of clade B AD8 Env fusion, dose response, cell-based, cherry-pick (AID 652062).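 Also: luciferase signal from cell-cell fusion driven by HIV-1 clade B AD8 Env; potency is for inhibitors of fusion seen as a drop in luminescence.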 Type of experiment: functional.

Active and inactive are the calls of the source. Rule as the data show it, for most assays here: actives have a measured EC50 and inactives only a lower limit. A value given as a limit tells only on which side of the number the result lay.

This is an account of results in ChEMBL document CHEMBL1201862, “PubChem BioAssay data set” (2004).

Chain of Luciferin 4-monooxygenase (P08659 whole entry): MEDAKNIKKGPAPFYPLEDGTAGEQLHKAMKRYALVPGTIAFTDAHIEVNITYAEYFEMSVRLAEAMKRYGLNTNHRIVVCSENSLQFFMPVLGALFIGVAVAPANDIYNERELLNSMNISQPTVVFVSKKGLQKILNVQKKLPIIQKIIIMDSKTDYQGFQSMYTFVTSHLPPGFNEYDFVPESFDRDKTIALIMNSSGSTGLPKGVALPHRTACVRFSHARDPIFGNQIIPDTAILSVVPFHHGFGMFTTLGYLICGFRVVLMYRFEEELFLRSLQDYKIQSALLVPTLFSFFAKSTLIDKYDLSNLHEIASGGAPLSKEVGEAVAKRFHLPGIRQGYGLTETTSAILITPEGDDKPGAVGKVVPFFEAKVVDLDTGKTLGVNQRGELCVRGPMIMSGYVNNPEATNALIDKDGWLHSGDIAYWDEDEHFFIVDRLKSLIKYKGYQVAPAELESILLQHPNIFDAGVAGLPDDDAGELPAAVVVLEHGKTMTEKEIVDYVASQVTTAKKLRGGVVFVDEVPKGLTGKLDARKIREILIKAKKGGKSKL
Chain of Cytochrome P450 2D6 (P10635 whole entry): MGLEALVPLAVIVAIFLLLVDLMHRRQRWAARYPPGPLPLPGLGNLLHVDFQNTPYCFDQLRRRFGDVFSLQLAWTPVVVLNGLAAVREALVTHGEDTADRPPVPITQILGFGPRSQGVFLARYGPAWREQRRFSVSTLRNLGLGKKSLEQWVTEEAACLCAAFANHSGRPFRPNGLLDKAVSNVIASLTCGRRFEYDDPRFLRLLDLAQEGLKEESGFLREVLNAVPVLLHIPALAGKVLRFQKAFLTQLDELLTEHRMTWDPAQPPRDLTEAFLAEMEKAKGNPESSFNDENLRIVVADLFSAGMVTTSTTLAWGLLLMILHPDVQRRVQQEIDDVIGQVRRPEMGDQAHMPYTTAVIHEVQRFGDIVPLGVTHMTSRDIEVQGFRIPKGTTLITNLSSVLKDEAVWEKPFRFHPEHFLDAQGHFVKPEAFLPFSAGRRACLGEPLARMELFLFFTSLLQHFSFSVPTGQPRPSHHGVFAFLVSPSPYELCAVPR

`Cc1cccn2c(=O)c3cc(C(=O)NCC4CCCO4)c(=N)n(CCc4ccccc4)c3nc12` (stereo unspecified): the figures for the EC50 in experiment [1] and in [2] were 102 µM (active) and 7.9 µM (inconclusive), respectively. For orientation: IC50 means the midpoint of a concentration-inhibition curve. As to `Cc1cccc(NC(=O)CCSc2nnc(Cc3ccccc3)o2)c1`, in “cells”, the IC50 was 39.8 µM (active).

Turning to `Clc1ccccc1-c1nc2ccccc2c2nc3ccccc3n12`, the results for the EC50 in [3] and in experiment [4] were > 150 µM (inactive) and 12.2 µM (active), respectively.

`O=C(CCCSc1nc2ccccc2[nH]1)N1CCN(c2ccc([N+](=O)[O-])cc2)CC1`: in experiment [5], the EC50 is > 260 µM (inactive).

In the case of `Cc1ccc(C)c(S(=O)(=O)Nc2ccccc2C(=O)Nc2cc(C)on2)c1`, the EC50 was > 160 µM (inactive) in experiment [3] and 1.28 µM (active) in [4]. In the case of `Cc1ccccc1NC(=O)CSc1nc(Nc2ccccc2)nc(N2CCOCC2)n1`, the EC50 in experiment [5] was > 260 µM (inactive). For `CC(=O)c1cc(NC(=O)c2ccc(Cl)cc2)c(=O)oc1/C=C/N(C)C`, the EC50 was 57.3 µM (active) in experiment [1], 4.07 µM (active) in experiment [2] and 5 µM (active) in experiment [6].

For `Cc1ccsc1/C=N/NC(=O)c1ccncc1`, the IC50 in “cells” was 3.02 µM (active).

Take `O=C(Nc1nc2ccccc2[nH]1)c1ccc(OC(F)F)cc1`: the EC50 in [5] was > 260 µM (inconclusive). Regarding `COc1cccc2s/c(=N/C(=O)CS(=O)(=O)c3ccc(Cl)cc3)n(C)c12`, the EC50 in [3] was > 160 µM (inactive); in experiment [4], 2.16 µM (active); in [7], 340 nM (active); in experiment [8], > 60 µM (not active).

As for `CC(=O)NCc1cn2c(C)csc2n1`, the EC50 in [9] and in experiment [10] was > 112 µM (not active) in each case. For `CCOC(=O)c1sc(C)c2c1NC(C)(c1cccc3ccccc13)NC2=O` (stereo unspecified), the EC50 in [5] is > 260 µM (inactive). By AC50 is commonly meant the concentration at which the activity in the assay is half-maximal. `CC(c1ccc(Cl)cc1)n1c(S)nnc1-c1ccc2ccccc2n1` (stereo unspecified): the EC50 in experiment [3] was > 160 µM (inactive); in experiment [4], 4.24 µM (active). For the same molecule, the AC50 at Cytochrome P450 2D6 was 39.8 µM (inconclusive). On to `Cc1ccc(C(=O)N/C(=C\c2cccc([N+](=O)[O-])c2)C(=O)NCc2ccncc2)cc1`, for which the EC50 in experiment [9] is > 112 µM (not active); in experiment [10] it was 38.4 µM (active). For the molecule `CC1(C)CC(=O)C2=C(C1)OC(N)=C(C#N)C2c1ccccc1OC(=O)N1CCOCC1` (stereo unspecified), the EC50 in experiment [1] and in experiment [2] was > 300 µM (not active) in each case. What is called CC50 is the concentration that lowers cell viability or growth by half. For `CCCCN1CCc2c1nc1ccc(Br)cc1c2N`, the CC50 in experiment [11] is 14.1 µM (active). Further, in [12], the AC50 was 12.2 µM (active). Turning to `Cn1c(=O)oc2cc(S(=O)(=O)N3CCCCC3)ccc21`, in [5], the EC50 is > 260 µM (inactive).

Regarding `CCCCOC(=O)CSC1=C(C#N)C(c2ccccc2OCC)C(C#N)C(=O)N1` (stereo unspecified), the EC50 is > 300 µM (not active) in experiment [1] and > 300 µM (inconclusive) in [2].

Take `CSc1nn(-c2ccc(C(=O)OCC(=O)NC(=O)NC(C)C)cc2)c(=S)s1`: the IC50 in the experiment “cells” was 13.2 µM (active). The same measure, in the same setting: the figure for `O=C(N/N=C\C=C\c1ccco1)c1cncc(Br)c1` is > 50 µM (active); for `O=C(OCc1nc2ccccc2s1)c1ccc(Br)o1` it is 11.9 µM (active). `Cn1c(CN2CCCCC2)nc2cc(NC(=O)c3ccc(Cl)cc3)ccc21`: the AC50 in experiment [13] is 28.7 µM (active); on Cytochrome P450 2D6 it was 0.0316 µM (inconclusive). For the molecule `COC(=O)c1c(C(=O)OC)c2n(c1C)Cc1ccccc1C2`, the EC50 is > 300 µM (not active) in experiment [1] and 43.7 µM (active) in [2].

For `Cc1cccc(N2C(=O)NC(=O)/C(=C/Nc3ccccc3N)C2=O)c1`, the EC50 in experiment [3] is > 160 µM (inactive); in experiment [4] it was > 38 µM (not active). Consider `O=C(/C=C/c1ccc([N+](=O)[O-])s1)N1CCCCC1`, for which the AC50 in [12] was 4.16 µM (active). On to `CC(=O)NC(=O)NC1OC(=O)C(Cl)=C1Cl` (stereo unspecified), for which the EC50 in [5] is > 260 µM (inconclusive). With `Cc1nc2ccc(N3CCN(C)CC3)cc2nc1C`, the EC50 in experiment [1] and in [2] was > 300 µM (not active) throughout.
